Experimental data taken from patent publication US8703754B2, “6-amino-2-{[(1S)-1-methylbutyl]oxy}-9-[5-(1-piperidinyl)-7,9-dihydro-8H-purin-8-one maleate” (GlaxoSmithKline LLC, priority 2010, dated 2014).

Legend:
[1] = Stability testing under ICH Q1A(R2) and Q1B conditions; assay type: physicochemical; settings: ICH Q1A(R2) stability and Q1B photostability conditions
Interferon-α [2] = assay: Induction of Interferon-α using fresh human PBMCs; assay type: cell-based; settings: PBMC, 24 hr, relative to 2 μM resiquimod control, read-out: mean pEC50 for induction of IFN-α (converted)
Experimental: (§1) Assay for the Induction of Interferon-α and TNF-α Using Fresh Human Peripheral Blood Mononuclear Cells (PBMCs)
(§2) 1 μL of test compound was transferred into 96-well tissue culture plates using a Biomek FX. Each compound was assayed in duplicate for each donor. Each plate contained a dilution series of the TLR7/8 agonist resiquimod as standard and Column 11 contained 1 μL of 200 μM resiquimod (giving a 2 μM final concentration, used to define the approximate maximal response to resiquimod).
(§3) Blood samples from two human donors were collected into sodium heparin (10 U/mL). 25 mL volumes of whole blood were overlaid onto 15 mL Histopaque in Leucosep tubes which were centrifuged at 800 g for 20 min and the band at the plasma/histopaque interface carefully removed. The collected cells were centrifuged at 2500 rpm for 10 min and the pellet resuspended in 10 mL of media (RPMI 1640 (Low endotoxin) supplemented with 10% v/v foetal calf serum (FCS, low endotoxin) 100 U/mL penicillin G, 100 μg/mL streptomycin, 10 mM L-glutamine and 1× non-essential amino acids). A 1:20 dilution of the cells was prepared using trypan blue and the cells counted using a haemocytometer.
(§4) Incubation and Assays for Interferon-α and TNF-α

IL-13 = assay: Allergen-driven cytokine assay using fresh human PBMCs from atopic volunteers (IL-13); assay type: cell-based; settings: 0.04 μM; PBMCs from three allergic donors, 10 ug/mL Timothy Grass antigen, up to 6 days
Experimental: (§5) Allergen-driven Cytokine Assay Using Fresh Human Peripheral Blood Mononuclear Cells (PBMCs) from Atopic Volunteers
(§6) An assay based on co-culture of atopic human donor derived peripheral blood mononuclear cells (PBMCs) with allergen and test compounds was developed. After 5-6 days culture, cell supernatants were assayed for a range of cytokines.
(§7) Each compound was assayed in triplicate at all concentrations.
(§8) Defibrinated human blood from volunteers known to be allergic to Timothy grass was centrifuged at 2500 rpm for 15 minutes. The upper layer of serum was collected and heat-inactivated at 56° C. for 30 minutes (HI-autologous serum). The lower layer of cells was resuspended in 50 mL PBS (+Ca +Mg), 25 mL diluted blood were overlaid onto 20 mL Lymphoprep in 50 ml tubes then centrifuged at 2500 rpm for 20 minutes at RT. The band at the serum/Lymphoprep interface was carefully removed. The collected cells were washed with PBS and re-suspended at 4×10^6 per mL in growth medium with HI-autologous serum. PBMCs were seeded at 0.4×10^6 cells per well in flat-bottomed 96 well plates in the presence of 10 ug/mL Timothy Grass antigen (Alk Abello) and test compounds at appropriate concentrations in a total volume of 200 μL.
(§9) Incubation and Cytokine Assays
(§10) Plates were incubated at 37° C. in 5% CO2 for up to 6 days. The cell medium from each well was harvested and stored at −20° C. prior to analysis.

IL-5 = assay: Allergen-driven cytokine assay using fresh human PBMCs from atopic volunteers (IL-5); assay type: cell-based; settings: 0.04 μM; PBMCs from three allergic donors, 10 ug/mL Timothy Grass antigen, up to 6 days
Experimental: as §5, §6, §7, §8, §9, §10

Interferon-α [3] = assay: Induction of Interferon-α using cryopreserved human PBMCs; assay type: cell-based; settings: PBMC, 24 hours, normalised to 1 μM resiquimod and DMSO, read-out: mean pEC50 for induction of IFN-α (converted)
Experimental: Assay for the Induction of Interferon-α Using Cryopreserved Human Peripheral Blood Mononuclear Cells (PBMCs)
Serial 2-fold dilutions with DMSO were prepared and 0.25 μl dispensed into 384-well clear Greiner polypropylene plates.
Blood samples of up to 200 mL were obtained from healthy human donors. Whole blood in 25 mL volumes was overlaid onto 15 mL Ficoll gradients in Leucosep tubes, and centrifuged at 1000 g for 20 min. Cells in the band at the plasma/histopaque interface were carefully removed and washed twice with PBS (centrifuged at 400 g for 5 min to harvest). The final pellet was resuspended in freezing medium (90% Heat-inactivated serum, 10% DMSO) to a cell concentration of 4×10^7 cells/mL. The resuspended cells were then cryopreserved (frozen) using a rate controlled freezer, and stored at −140° C. for up to 4 months.
Incubation and Assay for Interferon-α
Immediately prior to assay, vials of cryopreserved (frozen) PBMCs were thawed rapidly in a water bath at 37° C. A 1:10 dilution of the cells in trypan blue was prepared and counted. […]
A multi-isoform immunoassay was used to quantify IFN-α in PBMC supernatants. […] Following three washes with PBS, 30 μl of ×2 T buffer (MSD) was added to each well and the plate was read on an MSD Sector 6000 plate reader. […]

Interferon-α [4] = assay: Induction of Interferon-α following intranasal dosing in the mouse; assay type: in vivo; settings: female BALB/c mice, 2 hours after dosing, ELISA
Experimental: Assay for the Induction of Interferon-α Following Intranasal Dosing in the Mouse
The compound of Reference Example 1 was dissolved in 0.2% Tween 80 in saline and administered intranasally (5 μL in total between the nostrils) to female BALB/c mice (n=6) under general anaesthesia. Animals were euthanased 2 hours after dosing and a terminal blood sample was taken and serum levels of Interferon-a measured using an ELISA assay.

TNF-α = assay: Induction of TNF-α using fresh human PBMCs; assay type: cell-based; settings: PBMC, 24 hr, relative to 2 μM resiquimod control, read-out: mean pEC50 for induction of TNF-α (converted)
Experimental: as §1, §2, §3, §4

| Compound | degradation under stability testing [1] | EC50 (Interferon-α [2]) | reduction of production of the Th2 cytokine IL-13 compared to the allergen control (IL-13) | reduction of production of the Th2 cytokine IL-5 compared to the allergen control (IL-5) | EC50 (Interferon-α [3]) | mean serum levels of Interferon-α (Interferon-α [4]) | EC50 (TNF-α) |
| --- | --- | --- | --- | --- | --- | --- | --- |
| CCC[C@H](C)Oc1nc(N)c2[nH]c(=O)n(CCCCCN3CCCCC3)c2n1.O=C(O)/C=C\C(=O)O [Example 2, 6-Amino-2-{[(1S)-1-methylbutyl]oxy}-9-[5-(1-piperidinyl)pentyl]-7,9-dihydro-8H-purin-8-one, Maleate Salt] | no significant degradation | – | – | – | – | – | – |
| CCC[C@H](C)Oc1nc(N)c2[nH]c(=O)n(CCCCCN3CCCCC3)c2n1 [Reference Example 1, 6-Amino-2-{[(1S)-1-methylbutyl]oxy}-9-[5-(1-piperidinyl)pentyl]-7,9-dihydro-8H-purin-8-one] | – | ≤ 1 nM | ≥ 50% | ≥ 50% | < 5.01 nM | 21029 pg/mL | ≥ 316 nM |
